The target of data set [1] is T1, recombinant human FAP protein (Homo sapiens, UniProt Q12884).
T1 construct: purchased ACRO Biosystems FAP-H5244
T1 sequence (Q12884 1-760): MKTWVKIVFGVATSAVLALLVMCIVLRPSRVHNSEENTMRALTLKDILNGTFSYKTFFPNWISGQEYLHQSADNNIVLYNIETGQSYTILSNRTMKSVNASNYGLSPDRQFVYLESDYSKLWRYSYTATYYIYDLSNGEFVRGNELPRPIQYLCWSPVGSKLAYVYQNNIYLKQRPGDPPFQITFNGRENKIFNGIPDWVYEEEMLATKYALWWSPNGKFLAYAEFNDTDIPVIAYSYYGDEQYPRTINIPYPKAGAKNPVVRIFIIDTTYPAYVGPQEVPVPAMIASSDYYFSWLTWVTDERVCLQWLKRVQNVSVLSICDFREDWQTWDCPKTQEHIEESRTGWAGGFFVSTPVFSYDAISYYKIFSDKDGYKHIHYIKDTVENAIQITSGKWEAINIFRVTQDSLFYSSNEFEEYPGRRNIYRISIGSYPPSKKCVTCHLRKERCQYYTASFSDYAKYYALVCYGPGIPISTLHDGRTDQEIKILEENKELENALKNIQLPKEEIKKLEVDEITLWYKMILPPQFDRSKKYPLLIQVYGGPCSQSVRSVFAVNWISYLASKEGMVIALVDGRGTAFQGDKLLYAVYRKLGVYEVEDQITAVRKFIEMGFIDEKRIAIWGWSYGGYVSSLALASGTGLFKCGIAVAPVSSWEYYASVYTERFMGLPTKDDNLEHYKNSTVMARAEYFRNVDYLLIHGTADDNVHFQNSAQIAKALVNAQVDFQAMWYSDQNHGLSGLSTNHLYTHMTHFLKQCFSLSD
Nature of the data set: SPR binding to immobilized recombinant human FAP protein. As to the method: (§1) The Biacore SPR interaction study was conducted to determine the binding kinetics between the peptides and the immobilized human FAP protein (FAP-H5244, ACRO Biosystems) or murine FAP protein (FAP-M52H3, ACRO Biosystems) as target antigens. The final binding affinity, represented by the equilibrium dissociation degree (M) or KD, was calculated by examining the relationship between the binding rate constant (ka) (M^−1 s^−1) and the dissociation rate (kd) (s^−1).
Background: In SPR one partner is held on a chip, and binding of the other changes the refractive index at the surface.

The target in data set [2] is T2, recombinant murine FAP protein (Mus musculus, UniProt P97321).
T2 construct: purchased ACRO Biosystems FAP-M52H3
T2 sequence (P97321 1-761): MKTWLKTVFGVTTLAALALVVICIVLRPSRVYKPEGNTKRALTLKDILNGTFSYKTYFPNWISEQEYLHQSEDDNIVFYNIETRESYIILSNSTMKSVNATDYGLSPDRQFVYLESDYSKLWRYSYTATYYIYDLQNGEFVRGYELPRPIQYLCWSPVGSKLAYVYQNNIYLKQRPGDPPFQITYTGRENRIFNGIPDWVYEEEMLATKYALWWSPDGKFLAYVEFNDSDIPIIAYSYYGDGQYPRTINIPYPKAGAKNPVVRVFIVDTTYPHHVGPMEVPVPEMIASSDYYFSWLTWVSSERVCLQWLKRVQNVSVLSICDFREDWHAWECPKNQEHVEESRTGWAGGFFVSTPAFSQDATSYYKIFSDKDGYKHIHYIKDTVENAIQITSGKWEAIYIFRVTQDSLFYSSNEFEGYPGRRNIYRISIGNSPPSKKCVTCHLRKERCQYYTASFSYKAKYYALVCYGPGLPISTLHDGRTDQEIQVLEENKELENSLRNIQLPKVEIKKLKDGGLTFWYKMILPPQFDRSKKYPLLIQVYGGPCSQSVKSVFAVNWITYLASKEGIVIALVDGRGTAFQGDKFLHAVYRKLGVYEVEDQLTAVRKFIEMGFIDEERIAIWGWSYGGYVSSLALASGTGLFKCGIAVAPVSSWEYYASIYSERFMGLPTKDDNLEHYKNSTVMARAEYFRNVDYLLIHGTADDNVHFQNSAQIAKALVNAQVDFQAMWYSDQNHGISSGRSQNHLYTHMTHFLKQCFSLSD
Nature of the data set: SPR binding to immobilized recombinant murine FAP protein. On the procedure:
as §1

Data set [3] is described as follows: Ex vivo biodistribution of 177Lu-labeled radioligands in tumor-free nude mice. As to conditions: mouse, intravenous, 1.11 MBq, total radioactivity. The source says:
After imaging collection and image reconstruction, samples from euthanized experimental mice, including blood and multiple significant organs, were harvested and weighed. The radioactivity in each collected tissue was counted using an automated gamma counter (Wizard 2480, PerkinElmer) and the accumulation of radioactivity in different tissues and organs was quantified and expressed as %ID/g (mean ± SD). [^177Lu]Lu-DOTA-FD1 (~1.11 MBq, n = 3), [^177Lu]Lu-DOTA-FD2 (~1.11 MBq, n = 3), and [^177Lu]Lu-DOTA-FD3 (~1.11 MBq, n = 3) were injected into the tail vein of free nude mice at 6 h, 24 h, and 24 h for ex vivo biodistribution to verify the circulation time of the 3 probes in vivo. Biodistribution data from tumor-bearing mice injected with [^177Lu]Lu-DOTA-FD3 at 45 h (~1.11 MBq, n = 4) and 90 h (~1.11 MBq, n = 3) validated the prolonged enrichment of the probe at the tumor site. At the end of each probe imaging and radioactivity counting study, tumor tissues were fixed in paraformaldehyde tissue fixative. Briefly, sections of 10 μm were cut and stained for H&E following the standard protocols. IHC staining with a FAP antibody (ab227703, Abcam) was performed only on tumor tissues following accepted techniques.

Data set [4] is described as follows: Stability of 177Lu-labeled radiopharmaceuticals in FBS and PBS. The class given is in vitro ADME. The note with it: 50% FBS and 50% PBS, checked at 2 h and 24 h. As to the method: To perform ^68Ga-labeling, approximately 20 nmol of FD1, FD2, or FD3 was dissolved in 20 μl of dimethyl sulfoxide and 230 μl of sterile deionized water. This mixture was added to 400 μl of ^68GaCl3 solution (containing 37 MBq) in 0.1 M HCl, with pH adjusted to 4.0 using 0.1 M NH4OAC. The mixture was incubated at 100 °C for 10 min without any additional purification steps. For ^177Lu-labeling, high-purity radionuclide ^177LuCl3 in 0.04 M HCl (3.9 GBq in 97 μl) was purchased from ITM (Munich, Germany). ^177LuCl3 solution (555 MBq in 0.04 M HCl) was added to 500 μl of 1M NH4OAC (pH = 5), followed by the addition of 375 nmol of FD1, FD2, or FD3. The solution was shaken at a temperature of 100 °C for a duration of 30 min. Instant thin-layer chromatography (iTLC; Eckert & Ziegler Radiopharma Inc.) was used to evaluate the RCP of the final products. For iTLC, the mobile phase consisted of 1 M NH4OAC and methyl alcohol in a ratio of 1:1. The final solution must be adjusted to pH 7.0 before being injected into the experimental mice via the tail vein. The stability of ^177Lu-labeled radiopharmaceuticals was evaluated in a mixture of 50% FBS and 50% PBS at 2 h and 24 h after preparation. In the process of preparing each [^68Ga]Ga-DOTA-FD1 for clinical imaging, the end product underwent sterilization by passing it through a 0.22-μm Millipore filter.

The next data set relates to HT1080-FAP tumor. Nature of the data set: FAP-targeted radioligand therapy in HT1080-FAP tumor models. The class given is in vivo, mice. As to the method:
HT1080-FAP tumor models with higher levels of FAP expression were utilized in this study. Tumor-bearing mice were subjected to therapy experiments when the tumor volume reached 50 to 180 mm^3. Tumor models with different tumor volumes were injected with different therapeutic doses. Mice bearing HT1080-FAP tumors of slightly larger tumor volumes were randomly assigned into 4 groups (n = 5 per group): control group and treatment groups with 800 μCi of [^177Lu]Lu-DOTA-FD1, 400 μCi of [^177Lu]Lu-DOTA-FD3, and 600 μCi [^177Lu]Lu-DOTA-FD3. Mice bearing HT1080-FAP tumors of slightly smaller tumor volumes were also divided into 4 groups (n = 6 per group): control group and treatment groups with 200 μCi of [^177Lu]Lu-DOTA-FD1, 200 μCi of [^177Lu]Lu-DOTA-FD2, and 200 μCi of [^177Lu]Lu-DOTA-FD3. Tumor volume and mice body weight were examined daily after a single-dose injection. Weight monitoring is expressed as a percentage of initial weight on the measurement day. Tumor volume was measured as half of the length × width squared times. Mice were euthanized when the tumor volume exceeded 1,500 mm^3, the tumor ruptured, or when it lost more than 20% of its body weight. T3M-4 tumor models with abundant stroma were established to validate the therapeutic efficacy of [^177Lu]Lu-DOTA-FD3. When the tumor volume grew to 100 to 150 mm^3, the mice were randomly divided into 2 groups (n = 7 per group): free ^177Lu treatment group and 500 μCi [^177Lu]Lu-DOTA-FD3 treatment group. Tumor volume and mice body weight were examined every 2 days.

As for `CCCCCC(=O)N[C@H]1CSCc2cc(CSCCNC(=O)[C@H](CCCCN)NC(=O)[C@@H](NC(=O)[C@H](CCSC)NC(=O)CN3CCN(CC(=O)O)CCN(CC(=O)O)CCN(CC(=O)O)CC3)C(C)C)cc(c2)CSC[C@@H](C(=O)O)NC(=O)[C@H](Cc2ccccc2)NC(=O)[C@H](CCC(N)=O)NC(=O)[C@H]([C@@H](C)O)NC(=O)[C@@H]2CCCN2C(=O)[C@@H]2CCCN2C1=O` [FD1], the Kd (commonly the equilibrium constant for the complex coming apart) in data set [1] stood at 3.3 nM; in data set [2], 10.2 nM.
The corresponding values for `CCCCCC(=O)N[C@H]1CSCc2cc(CSCCNC(=O)[C@H](CCCCNC(=O)CCCc3ccc(I)cc3)NC(=O)CN3CCN(CC(=O)O)CCN(CC(=O)O)CCN(CC(=O)O)CC3)cc(c2)CSC[C@@H](C(=O)O)NC(=O)[C@H](Cc2ccccc2)NC(=O)[C@H](CCC(N)=O)NC(=O)[C@H]([C@@H](C)O)NC(=O)[C@@H]2CCCN2C(=O)[C@@H]2CCCN2C1=O` [FD2] are 2.06 nM and 11.6 nM.
For `CCCCCC(=O)N[C@H]1CSCc2cc(CSCCNC(=O)[C@H](CCCCNC(=O)CCCc3ccc(I)cc3)NC(=O)[C@@H](NC(=O)[C@H](CCSC)NC(=O)CN3CCN(CC(=O)O)CCN(CC(=O)O)CCN(CC(=O)O)CC3)C(C)C)cc(c2)CSC[C@@H](C(=O)O)NC(=O)[C@H](Cc2ccccc2)NC(=O)[C@H](CCC(N)=O)NC(=O)[C@H]([C@@H](C)O)NC(=O)[C@@H]2CCCN2C(=O)[C@@H]2CCCN2C1=O` [FD3] the same measures were 6.25 nM and 13.7 nM.
As for `CCCCCC(=O)N[C@H]1CSCc2cc(CSCCNC(=O)[C@H](CCCCN)NC(=O)[C@@H](NC(=O)[C@H](CCSC)NC(=O)CN3CCN(CC(=O)O)CCN(CC(=O)O)CCN(CC(=O)O)CC3)C(C)C)cc(c2)CSC[C@@H](C(=O)O)NC(=O)[C@H](Cc2ccccc2)NC(=O)[C@H](CCC(N)=O)NC(=O)[C@H]([C@@H](C)O)NC(=O)[C@@H]2CCCN2C(=O)[C@@H]2CCCN2C1=O` [[^177Lu]Lu-DOTA-FD1, metal not drawn], the tissue uptake at 6 h in data set [3] (kidney, 6 h p.i., read-out: radioactivity uptake in kidneys (biodistribution)) is 30.4 ± 3.1 %ID/g. The “stable in FBS and PBS, no significant demetallation” value in data set [4] is listed as “at least 24 h”. Moreover, the “tumor volume versus control group” value in the data set on HT1080-FAP tumor (average tumor volume 180 mm^3 at onset, single dose 800 μCi) is “no difference in tumor volume”.
For `CCCCCC(=O)N[C@H]1CSCc2cc(CSCCNC(=O)[C@H](CCCCNC(=O)CCCc3ccc(I)cc3)NC(=O)CN3CCN(CC(=O)O)CCN(CC(=O)O)CCN(CC(=O)O)CC3)cc(c2)CSC[C@@H](C(=O)O)NC(=O)[C@H](Cc2ccccc2)NC(=O)[C@H](CCC(N)=O)NC(=O)[C@H]([C@@H](C)O)NC(=O)[C@@H]2CCCN2C(=O)[C@@H]2CCCN2C1=O` [[^177Lu]Lu-DOTA-FD2, metal not drawn], the tissue uptake at 24 h in data set [3] (blood, 24 h p.i., read-out: accumulation in the blood pool (biodistribution)) was determined as 31.8 ± 2.24 %ID/g. In addition, in data set [4], the “stable in FBS and PBS, no significant demetallation” value is reported as “at least 24 h”. Further, the “tumor growth at the end of the study” value in the data set with HT1080-FAP tumor (average tumor volume 50 mm^3 at onset, single dose 200 μCi) is “substantially inhibited the tumor growth”. Also, the “mice that acquired complete response (CR)” value with HT1080-FAP tumor (average tumor volume 50 mm^3 at onset, single dose 200 μCi, 6 mice per group) is reported as 1 of the 6.

The values are drawn from article PMC11066877, “Development and Characterization of Novel FAP-Targeted Theranostic Pairs: A Bench-to-Bedside Study” (Research, 2023).
